The structures appear in SMILES notation.

We go through three compounds from ChEMBL document CHEMBL1125779, “Synthesis and evaluation of some nitrobenzenesulfonamides containing nitroisopropyl and (ureidooxy)methyl groups as novel hypoxic cell selective cytotoxic agents” (J Med Chem, 1991).

The data set can be described thus: Partition coefficient was measured in n-octanol at the PH 7.4 buffer. Type of data set: physicochemical. Conditions: octanol/water.
For `CNCCN(C)S(=O)(=O)c1ccc(CONC(N)=O)c([N+](=O)[O-])c1`, the Partition coefficient is reported as 0.28.
On to `O=[N+]([O-])c1nccn1CC(O)CN1CCCCC1` (stereo not drawn) [PIMONIDAZOLE], for which the Partition coefficient turned out to be 0.4.
The figure for `CN(CCN)S(=O)(=O)c1ccc(C(C)(C)[N+](=O)[O-])c([N+](=O)[O-])c1` is 0.37.
